Positions of bridges follow the written chain, without caps; N, C: chain ends. Non-standard residues stand in square brackets, D forms with d. Residues, ends and D or L forms follow the SMILES beside them. *: point of attachment. Malonyl(2,2-Me2,histaminyl) = CC(C)(C(=O)NCCc1cnc[nH]1)C(=O)*; Ala(1H-tetrazol-5-yl) = N[C@@H](Cc1nnn[nH]1)C(=O)O; αMeL = CC(C)C[C@](C)(N)C(=O)O; Nle = CCCC[C@H](N)C(=O)O; Aib = CC(C)(N)C(=O)O
How the values were obtained:
human GLP1 receptor = biological target: T1, human GLP1 receptor (Homo sapiens, UniProt P43220); test: cAMP accumulation assay, functional agonism of human GLP1 receptor; assay type: cell-based; conditions: HEK cells infected with human GLP1 receptor BacMam virus, HTRF cAMP; for Emax: HEK293, read-out: Human GLP-1R agonist cAMP Emax; for EC50: read-out: Human GLP-1R agonist cAMP pEC50 (converted)
T1 construct: expressed in transfected cells; host or cells: HEK cells, BacMam virus transduction
T1 sequence (P43220 24-463): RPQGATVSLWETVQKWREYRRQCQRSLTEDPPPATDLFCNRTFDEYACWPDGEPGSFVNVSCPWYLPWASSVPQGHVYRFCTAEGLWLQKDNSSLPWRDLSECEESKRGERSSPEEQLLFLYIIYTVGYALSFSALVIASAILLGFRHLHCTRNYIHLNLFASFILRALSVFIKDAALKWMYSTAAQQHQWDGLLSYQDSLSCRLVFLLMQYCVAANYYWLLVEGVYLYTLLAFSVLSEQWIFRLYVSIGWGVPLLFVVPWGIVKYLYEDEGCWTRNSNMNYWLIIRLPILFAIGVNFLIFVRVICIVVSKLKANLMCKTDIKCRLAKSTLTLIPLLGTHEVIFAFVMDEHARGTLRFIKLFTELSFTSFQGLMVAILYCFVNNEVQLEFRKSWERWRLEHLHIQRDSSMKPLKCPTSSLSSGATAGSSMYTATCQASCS
Procedure: (§1) CAMP production upon agonist stimulation of human GLP2 or GLP1 receptor was assessed utilizing HiRange cAMP kit (Cisbio). In brief, HEK cells were infected with either human GLP2 or GLP1 receptor BacMam virus for 24 hours and frozen for later use in the assay. […] Cells were prepared in the assay buffer (HBSS (Lonza) supplemented with 0.5 mM IBMX (Tocris)). After 45 min incubation at 37° C., the reaction was stopped by addition of the HTRF detection reagents in the lysis buffer provided in the kit.

human GLP2 receptor = biological target: T2, human GLP2 receptor (Homo sapiens, UniProt O95838); test: cAMP accumulation assay, functional agonism of human GLP2 receptor; assay type: cell-based; conditions: HEK cells infected with human GLP2 receptor BacMam virus, HTRF cAMP; for Emax: HEK293, read-out: Human GLP-2R agonist cAMP Emax; for EC50: read-out: Human GLP-2R agonist cAMP pEC50 (converted)
T2 construct: expressed in transfected cells; host or cells: HEK cells, BacMam virus transduction
T2 sequence (O95838 1-553): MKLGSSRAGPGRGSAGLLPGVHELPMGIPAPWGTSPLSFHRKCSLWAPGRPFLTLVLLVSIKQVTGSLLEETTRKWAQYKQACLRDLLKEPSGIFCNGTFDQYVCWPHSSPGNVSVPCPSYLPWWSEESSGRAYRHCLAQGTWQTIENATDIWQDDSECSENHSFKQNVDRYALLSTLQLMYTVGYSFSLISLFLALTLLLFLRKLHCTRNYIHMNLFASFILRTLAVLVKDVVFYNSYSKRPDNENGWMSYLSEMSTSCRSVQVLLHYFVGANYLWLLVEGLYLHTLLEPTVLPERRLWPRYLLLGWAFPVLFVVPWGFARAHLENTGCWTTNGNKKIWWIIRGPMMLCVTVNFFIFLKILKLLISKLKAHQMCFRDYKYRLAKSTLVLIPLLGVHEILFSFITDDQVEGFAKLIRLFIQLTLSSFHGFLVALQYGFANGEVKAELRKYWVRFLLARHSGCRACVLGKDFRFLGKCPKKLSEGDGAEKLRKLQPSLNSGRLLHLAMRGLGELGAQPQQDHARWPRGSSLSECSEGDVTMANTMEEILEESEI
Procedure: as §1

| Emax (human GLP1 receptor) [%] | EC50 (human GLP1 receptor) [nM] | Emax (human GLP2 receptor) [%] | EC50 (human GLP2 receptor) [nM] | Structure (SMILES) |
| --- | --- | --- | --- | --- |
| 64.1 | 3.98 | 99.9 | 0.2 | CCCC[C@@H]1NC(=O)[C@H](CCC(=O)O)NC(=O)[C@H](CC(=O)O)NC(=O)[C@@H](NC(=O)[C@H](Cc2ccccc2)NC(=O)[C@H](CO)NC(=O)CNC(=O)[C@H](Cc2nn[nH]n2)NC(=O)C(C)(C)C(=O)NCCc2c[nH]cn2)CCC(=O)NCCCC[C@@H](C(=O)N[C@H]2CCC(=O)NCCCC[C@@H](C(=O)N[C@H]3CCC(=O)NCCCC[C@@H](C(=O)N[C@@H](CC(=O)O)C(=O)N[C@@H](Cc4ccccc4)C(=O)N[C@H](C(=O)N[C@H]4CCC(=O)NCCCC[C@@H](C(=O)N[C@H]5CCCCNC(=O)CC[C@@H](C(N)=O)NC(=O)[C@H]([C@@H](C)O)NC(=O)[C@H]([C@@H](C)CC)NC(=O)[C@H](CCCCN)NC5=O)NC(=O)[C@H]([C@@H](C)CC)NC(=O)[C@H](CC(C)C)NC(=O)[C@H](Cc5c[nH]c6ccccc56)NC4=O)[C@@H](C)CC)NC(=O)[C@H](C)NC(=O)[C@H](C)NC3=O)NC(=O)[C@H](CC(=O)O)NC(=O)[C@H](CC(C)C)NC(=O)[C@H]([C@@H](C)CC)NC2=O)NC1=O [Example 80] |
| 96.1 | 0.2 | 104 | 0.631 | CCCC[C@H](NC(=O)[C@H](CCC(=O)O)NC(=O)[C@@H]1CC(=O)NCCCC[C@H](NC(=O)[C@H](Cc2nn[nH]n2)NC(=O)C(C)(C)C(=O)NCCc2c[nH]cn2)C(=O)N[C@@H](CO)C(=O)N[C@@H](Cc2ccccc2)C(=O)N[C@@H](CO)C(=O)N1)C(=O)N[C@H](Cc1ccccc1)C(=O)N[C@H](C(=O)N[C@@](C)(CC(C)C)C(=O)N[C@@H](CC(C)C)C(=O)N[C@@H](CC(=O)O)C(=O)N[C@H]1CCC(=O)NCCCC[C@@H](C(=O)N[C@@H](CC(=O)O)C(=O)N[C@@H](Cc2ccccc2)C(=O)N[C@H](C(=O)N[C@H]2CCC(=O)NCCCC[C@@H](C(=O)N[C@H](C(=O)N[C@H]3CCC(=O)NCCCC[C@@H](C(N)=O)NC(=O)[C@H]([C@@H](C)O)NC(=O)[C@H]([C@@H](C)CC)NC3=O)[C@@H](C)O)NC(=O)[C@H]([C@@H](C)CC)NC(=O)[C@H](CC(C)C)NC(=O)[C@H](Cc3c[nH]c4ccccc34)NC2=O)[C@@H](C)CC)NC(=O)[C@H](C)NC(=O)[C@H](C)NC(=O)[C@H](CCCCN)NC1=O)[C@@H](C)O [Example 44] ({Malonyl(2,2-Me2,histaminyl)}-[Ala(1H-tetrazol-5-yl)]KSFSDE[Nle][dF]T[αMeL]LDEKAAKDFIEWLIKTEITK-NH2; lactam 2-6, 14-18, 22-26, 28-31; C-terminus assumed) |
| 94.1 | 0.2 | 96.4 | 0.398 | CCCC[C@H](NC(=O)[C@H](CCC(=O)O)NC(=O)[C@@H]1CC(=O)NCCCC[C@H](NC(=O)[C@H](Cc2nn[nH]n2)NC(=O)C(C)(C)C(=O)NCCc2c[nH]cn2)C(=O)N[C@@H](CO)C(=O)N[C@@H](Cc2ccccc2)C(=O)N[C@@H](CO)C(=O)N1)C(=O)N[C@H](Cc1ccccc1)C(=O)N[C@H]1CCCCNC(=O)C[C@@H](C(=O)N[C@@H](CCCCN)C(=O)N[C@@H](C)C(=O)N[C@@H](C)C(=O)NC(C)(C)C(=O)N[C@@H](CC(=O)O)C(=O)N[C@@H](Cc2ccccc2)C(=O)N[C@H](C(=O)N[C@H]2CCC(=O)NCCCC[C@@H](C(=O)N[C@H]3CCC(=O)NCCCC[C@@H](C(N)=O)NC(=O)[C@H]([C@@H](C)O)NC(=O)[C@H]([C@@H](C)CC)NC(=O)[C@H](CCCCN)NC3=O)NC(=O)[C@H]([C@@H](C)CC)NC(=O)[C@H](CC(C)C)NC(=O)[C@H](Cc3c[nH]c4ccccc34)NC2=O)[C@@H](C)CC)NC(=O)[C@H](CC(=O)O)NC(=O)[C@H](CC(C)C)NC(=O)[C@H]([C@@H](C)CC)NC1=O [Example 42] ({Malonyl(2,2-Me2,histaminyl)}-[Ala(1H-tetrazol-5-yl)]KSFSDE[Nle][dF]KILDDKAA[Aib]DFIEWLIKEKITK-NH2; lactam 2-6, 10-14, 22-26, 27-31; C-terminus assumed) |

The remaining lines, values behind:

| Structure (SMILES) | Emax (human GLP1 receptor) [%] | EC50 (human GLP1 receptor) [nM] | Emax (human GLP2 receptor) [%] | EC50 (human GLP2 receptor) [nM] |
| --- | --- | --- | --- | --- |
| CCCC[C@@H]1NC(=O)[C@H](CCC(=O)O)NC(=O)[C@@H](NC(=O)[C@H](CO)NC(=O)[C@H](Cc2ccccc2)NC(=O)[C@H](CO)NC(=O)CNC(=O)[C@H](Cc2nn[nH]n2)NC(=O)C(C)(C)C(=O)NCCc2c[nH]cn2)CCCCNC(=O)C[C@@H](C(=O)N[C@H](C(=O)N[C@@H](CC(C)C)C(=O)N[C@@H](CC(=O)O)C(=O)N[C@@H](CC(C)C)C(=O)N[C@@H](CCCCN)C(=O)N[C@@H](C)C(=O)N[C@@H](C)C(=O)NC(C)(C)C(=O)N[C@@H](CC(=O)O)C(=O)N[C@@H](Cc2ccccc2)C(=O)N[C@H](C(=O)N[C@@H](CC(N)=O)C(=O)N[C@@H](Cc2c[nH]c3ccccc23)C(=O)N[C@@H](CC(C)C)C(=O)N[C@H](C(=O)N[C@@H](CCC(N)=O)C(=O)N[C@H](C(=O)N[C@H]2CCC(=O)NCCCC[C@@H](C(N)=O)NC(=O)[C@H]([C@@H](C)O)NC(=O)[C@H]([C@@H](C)CC)NC2=O)[C@@H](C)O)[C@@H](C)CC)[C@@H](C)CC)[C@@H](C)CC)NC(=O)[C@@H](Cc2ccccc2)NC1=O [Example 108] ({Malonyl(2,2-Me2,histaminyl)}-[Ala(1H-tetrazol-5-yl)]GSFSKE[Nle][dF]DILDLKAA[Aib]DFINWLIQTEITK-NH2; lactam 6-10, 28-31; C-terminus assumed) | 92.1 | 3.98 | 104 | 0.501 |
| CCCC[C@H](NC(=O)[C@H](CCC(=O)O)NC(=O)[C@H](CC(=O)O)NC(=O)[C@H](CO)NC(=O)[C@H](Cc1ccccc1)NC(=O)[C@H](CO)NC(=O)CNC(=O)[C@H](CC(=O)O)NC(=O)C(C)(C)NC(=O)[C@@H](N)Cc1c[nH]cn1)C(=O)N[C@H](Cc1ccccc1)C(=O)N[C@H](C(=O)N[C@H](C(=O)N[C@@H](CC(C)C)C(=O)N[C@@H](CC(=O)O)C(=O)N[C@H]1CCCCNC(=O)C[C@@H](C(=O)N[C@@H](CC(=O)O)C(=O)N[C@@H](Cc2ccccc2)C(=O)N[C@H](C(=O)N[C@@H](CC(N)=O)C(=O)N[C@@H](Cc2c[nH]c3ccccc23)C(=O)N[C@@H](CC(C)C)C(=O)N[C@H](C(=O)N[C@@H](CCC(N)=O)C(=O)N[C@H](C(=O)N[C@@H](CCCCN)C(=O)N[C@H](C(=O)N[C@H](C(=O)N[C@@H](CC(=O)O)C(N)=O)[C@@H](C)O)[C@@H](C)CC)[C@@H](C)O)[C@@H](C)CC)[C@@H](C)CC)NC(=O)[C@H](C)NC(=O)[C@H](C)NC(=O)[C@H](CCCCN)NC1=O)[C@@H](C)CC)[C@@H](C)O [Example 103] (H-H[Aib]DGSFSDE[Nle][dF]TILDKKAADDFINWLIQTKITD-NH2; lactam 16-20) | 97 | 2 | 100 | 0.00158 |
